≈ marks a conversion by molar mass, not a printed value. Calls of active or inactive are those of the source. The calls are words filed in the database; no cut-off is given here.

As usually defined, the MIC99 is the lowest concentration that inhibits either 99% of growth or 99% of the strains tested, depending on the study.

One data set relates to THP-1. Nature of the data set: Cytotoxic activity against human THP1 cells. It counts as cell-based.
Data set [1] relates to Mycobacterium tuberculosis. The experiment in a line: Antimycobacterial activity against Mycobacterium tuberculosis H37Rv ATCC 27294 assessed as inhibition of bacterial growth incubated for 14 days by inverted plate reader based macroscopy. Type of data set: functional. The conditions noted are these: H37Rv ATCC 27294, 336 h.
For data set [2], the system named is Mycobacterium tuberculosis. The experiment in a line: Antimycobacterial activity against Mycobacterium tuberculosis H37Rv infected in Balb/c mouse assessed as reduction in spleen bacterial load at 50 mg/kg, po dosed once daily 5 days per week for 10 weeks. Type of data set: functional.
In data set [3] the test system is Mycobacterium tuberculosis. Nature of the data set: Antimycobacterial activity against Mycobacterium tuberculosis H37Rv infected in Balb/c mouse assessed as reduction in spleen bacterial load at 25 mg/kg, po dosed once daily 5 days per week for 3 weeks. It counts as functional.
Data set [4] concerns Mycobacterium tuberculosis. The experiment in a line: Antimycobacterial activity against Mycobacterium tuberculosis H37Rv infected in Balb/c mouse assessed as reduction in spleen bacterial load at 50 mg/kg, po dosed once daily 5 days per week for 6 weeks. It counts as functional.
The subject of data set [5] is Mycobacterium tuberculosis. Nature of the data set: Antimycobacterial activity against Mycobacterium tuberculosis H37Rv infected in Balb/c mouse assessed as reduction in lung bacterial load at 100 mg/kg, po dosed once daily 5 days per week for 3 to 10 weeks. Type of data set: functional, organism-based.
Data set [6] deals with Mycobacterium tuberculosis. Nature of the data set: Antimycobacterial activity against Mycobacterium tuberculosis H37Rv infected in Balb/c mouse assessed as reduction in spleen bacterial load at 50 mg/kg, po dosed once daily 5 days per week for 3 weeks. It counts as functional.
Data set [7] has as its system Mycobacterium tuberculosis. The experiment in a line: Antimycobacterial activity against Mycobacterium tuberculosis H37Rv infected in Balb/c mouse assessed as reduction in lung bacterial load at 50 mg/kg, po dosed once daily 5 days per week for 3 to 10 weeks. Type of data set: functional, organism-based.
Data set [8] deals with Mycobacterium tuberculosis. Nature of the data set: Antimycobacterial activity against Mycobacterium tuberculosis H37Rv infected in Balb/c mouse assessed as reduction in lung bacterial load at 25 mg/kg, po dosed once daily 5 days per week for 3 to 10 weeks. Type of data set: functional, organism-based.
Data set [9] concerns Mycobacterium tuberculosis. The experiment in a line: Antimycobacterial activity against Mycobacterium tuberculosis H37Rv infected in Balb/c mouse assessed as reduction in spleen bacterial load at 100 mg/kg, po dosed once daily 5 days per week for 3 weeks. Type of data set: functional.
Data set [10] relates to Mycobacterium tuberculosis. The experiment in a line: Antimycobacterial activity against Mycobacterium tuberculosis H37Rv infected in Balb/c mouse assessed as reduction in spleen bacterial load at 25 mg/kg, po dosed once daily 5 days per week for 10 weeks. It counts as functional.
The test system of data set [11] is Mycobacterium tuberculosis. Nature of the data set: Antimycobacterial activity against Mycobacterium tuberculosis H37Rv infected in Balb/c mouse assessed as reduction in spleen bacterial load at 100 mg/kg, po dosed once daily 5 days per week for 10 weeks. It counts as functional.
Data set [12] deals with Mycobacterium tuberculosis. Nature of the data set: Antimycobacterial activity against Mycobacterium tuberculosis H37Rv infected in Balb/c mouse assessed as reduction in lung bacterial load at 10 mg/kg, po dosed once daily 5 days per week for 3 weeks. It counts as functional.
The subject of data set [13] is Mycobacterium tuberculosis. The experiment in a line: Antimycobacterial activity against Mycobacterium tuberculosis H37Rv infected in Balb/c mouse assessed as reduction in spleen bacterial load at 10 mg/kg, po dosed once daily 5 days per week for 6 weeks. Type of data set: functional.
In data set [14] the test system is Mycobacterium tuberculosis. The experiment in a line: Antimycobacterial activity against Mycobacterium tuberculosis H37Rv infected in Balb/c mouse assessed as reduction in spleen bacterial load at 10 mg/kg, po dosed once daily 5 days per week for 3 weeks. It counts as functional.
The subject of data set [15] is Mycobacterium tuberculosis. Nature of the data set: Antimycobacterial activity against Mycobacterium tuberculosis H37Rv infected in Balb/c mouse assessed as reduction in spleen bacterial load at 10 mg/kg, po dosed once daily 5 days per week for 10 weeks. Type of data set: functional, organism-based.
The test system of data set [16] is Mycobacterium tuberculosis. The experiment in a line: Antimycobacterial activity against Mycobacterium tuberculosis H37Rv infected in Balb/c mouse assessed as reduction in lung bacterial load at 10 mg/kg, po dosed once daily 5 days per week for 6. Type of data set: functional.
In data set [17] the test system is Mycobacterium tuberculosis. The experiment in a line: Antimycobacterial activity against Mycobacterium tuberculosis H37Rv infected in Balb/c mouse assessed as reduction in lung bacterial load at 10 mg/kg, po dosed once daily 5 days per week for 10. It counts as functional, organism-based.
Data set [18] concerns Mycobacterium tuberculosis. The experiment in a line: Antimycobacterial activity against Mycobacterium tuberculosis H37Rv infected in Balb/c mouse assessed as reduction in lung bacterial load at 25 mg/kg, po dosed once daily 5 days per week for 6 weeks. It counts as functional.
For data set [19], the system named is Mycobacterium tuberculosis. The experiment in a line: Antimycobacterial activity against Mycobacterium tuberculosis H37Rv infected in Balb/c mouse assessed as reduction in spleen bacterial load at 25 mg/kg, po dosed once daily 5 days per week for 6 weeks. It counts as functional, organism-based.
Data set [20] deals with Mycobacterium tuberculosis. The experiment in a line: Antimycobacterial activity against Mycobacterium tuberculosis H37Rv infected in Balb/c mouse assessed as reduction in lung bacterial load at 25 mg/kg, po dosed once daily 5 days per week for 3 weeks. It counts as functional.
For data set [21], the system named is Mycobacterium tuberculosis. Nature of the data set: Antimycobacterial activity against Mycobacterium tuberculosis H37Rv infected in Balb/c mouse assessed as reduction in lung bacterial load at 25 mg/kg, po dosed once daily 5 days per week for 10 weeks. It counts as functional.

Take `O=C(COc1ccc(/C=N/NC(=O)c2ccncc2)cc1)Nc1ccc(Br)cc1`: the Activity with THP-1 is above 50 µM. Further, the MIC99 in data set [1] turned out to be 0.78 µM (≈ 0.354 µg/mL).
On the same counts, the results for `O=C(COc1ccc(/C=N/NC(=O)c2ccncc2)cc1)Nc1ccccc1Br` are above 50 µM and 0.78 µM (≈ 0.354 µg/mL).
`O=C(COc1ccc(/C=N/NC(=O)c2ccncc2)cc1)Nc1cccc(Br)c1` had an Activity in the data set with THP-1 above 50 µM. In addition, the MIC99 in data set [1] came out at 0.78 µM (≈ 0.354 µg/mL).
Consider `O=C(COc1ccc(/C=N/NC(=O)c2ccncc2)cc1)Nc1ccc([N+](=O)[O-])cc1`, for which the Activity in the data set with THP-1 is above 50 µM. In addition, the MIC99 in data set [1] came out at 1.56 µM (≈ 0.654 µg/mL).
The corresponding values for `O=C(COc1ccc(/C=N/NC(=O)c2ccncc2)cc1)Nc1cccc2ccccc12` are above 50 µM and 1.56 µM (≈ 0.662 µg/mL).
The corresponding values for `O=C(COc1ccc(/C=N/NC(=O)c2ccncc2)cc1)Nc1ccc(Cl)cc1` are above 50 µM and 0.39 µM (≈ 0.159 µg/mL).
The corresponding values for `O=C(COc1ccc(/C=N/NC(=O)c2ccncc2)cc1)NCc1ccccc1` are above 50 µM and 0.78 µM (≈ 0.303 µg/mL).
On to `O=C(COc1ccc(/C=N/NC(=O)c2ccncc2)cc1)Nc1cccc(F)c1`, for which, in the data set on THP-1, the Activity is above 50 µM. For the same molecule, the MIC99 in [1] is 0.78 µM (≈ 0.306 µg/mL).
For the molecule `Cc1ccc(NC(=O)COc2ccc(/C=N/NC(=O)c3ccncc3)cc2)cc1`, the Activity is 2.14 log10CFU in data set [2]; above 50 µM in the data set with THP-1; 1.19 log10CFU in data set [3]; 2.28 log10CFU in [4]; 1.4 log10CFU in [6]; 1.77 log10CFU in data set [9]. The Activity is recorded as 1.23 log10CFU in data set [10] and 3.11 log10CFU in data set [11]. Moreover, the outcome in [5], in [7] and in data set [8] was inactive. Also, in data set [1], the MIC99 was 0.39 µM (≈ 0.151 µg/mL).
The molecule `O=C(COc1ccc(/C=N/NC(=O)c2ccncc2)cc1)Nc1ccccn1` came in with an Activity in the data set with THP-1 above 50 µM. In addition, the MIC99 in data set [1] was 0.78 µM (≈ 0.293 µg/mL).
As to `CO[C@H]1/C=C/O[C@@]2(C)Oc3c(C)c(O)c4c(O)c(c(/C=N/N5CCN(C)CC5)c(O)c4c3C2=O)NC(=O)/C(C)=C\C=C\[C@H](C)[C@H](O)[C@@H](C)[C@@H](O)[C@@H](C)[C@H](OC(C)=O)[C@@H]1C` [RIFAMPIN], the Activity is given as 1.93 log10CFU in data set [12], 3.31 log10CFU in data set [13], 1.76 log10CFU in data set [14] and 2.8 log10CFU in data set [16]. Also, the result in data set [15] and in [17] was Active.
With `NNC(=O)c1ccncc1` [ISONIAZID], the Activity in [18] turned out to be 2.59 log10CFU; in [3], 2.66 log10CFU; in [20], 1.22 log10CFU; in data set [21], 3.38 log10CFU. The result in [19] and in data set [10] was Active. Moreover, the MIC99 in [1] amounted to 0.39 µM (≈ 0.0535 µg/mL).
As to `O=C(COc1ccc(/C=N/NC(=O)c2ccncc2)cc1)Nc1cccc(Cl)c1`, the Activity in the data set with THP-1 was above 50 µM. Also, the MIC99 in [1] worked out at 0.78 µM (≈ 0.319 µg/mL).
The corresponding values for `CCc1ccc(NC(=O)COc2ccc(/C=N/NC(=O)c3ccncc3)cc2)cc1` are above 50 µM and 0.39 µM (≈ 0.157 µg/mL).
The corresponding values for `O=C(COc1ccc(/C=N/NC(=O)c2ccncc2)cc1)Nc1ccccc1F` are above 50 µM and 0.78 µM (≈ 0.306 µg/mL).
The corresponding values for `COc1ccc(NC(=O)COc2ccc(/C=N/NC(=O)c3ccncc3)cc2)cc1` are above 50 µM and 0.39 µM (≈ 0.158 µg/mL).
In turn, `Cc1ccc(CNC(=O)COc2ccc(/C=N/NC(=O)c3ccncc3)cc2)cc1` came in with an Activity with THP-1 above 50 µM. Further, the MIC99 in [1] turned out to be 0.39 µM (≈ 0.157 µg/mL).
`O=C(COc1ccc(/C=N/NC(=O)c2ccncc2)cc1)Nc1ccccc1Cl` gave an Activity in the data set on THP-1 above 50 µM. The MIC99 in [1] worked out at 0.78 µM (≈ 0.319 µg/mL).
On the same counts, the results for `O=C(COc1ccc(/C=N/NC(=O)c2ccncc2)cc1)Nc1ccccc1` are above 50 µM and 0.78 µM (≈ 0.292 µg/mL).
The corresponding values for `O=C(COc1ccc(/C=N/NC(=O)c2ccncc2)cc1)Nc1ccc(F)cc1` are above 50 µM and 0.78 µM (≈ 0.306 µg/mL).
The corresponding values for `CC(C)c1ccc(NC(=O)COc2ccc(/C=N/NC(=O)c3ccncc3)cc2)cc1` are above 50 µM and 0.39 µM (≈ 0.162 µg/mL).
In turn, `O=C(COc1ccc(/C=N/NC(=O)c2ccncc2)cc1)NCCc1ccccc1` came in with an Activity with THP-1 above 50 µM. The MIC99 in [1] amounted to 0.78 µM (≈ 0.314 µg/mL).
On the same counts, the results for `COc1ccc(CNC(=O)COc2ccc(/C=N/NC(=O)c3ccncc3)cc2)cc1` are above 50 µM and 0.39 µM (≈ 0.163 µg/mL).
On the same counts, the results for `O=C(COc1ccc(/C=N/NC(=O)c2ccncc2)cc1)Nc1cccnc1` are above 50 µM and 0.39 µM (≈ 0.146 µg/mL).

These data come from ChEMBL document CHEMBL3621071, “Novel isoniazid-amidoether derivatives: Synthesis, characterization and antimycobacterial activity evaluation” (Medchemcomm, 2015).
